Data: patent US20150328109A1, “DERMAL COMPOSITIONS CONTAINING UNNATURAL HYGROSCOPIC AMINO ACIDS” (MEDPHARM LIMITED, priority 2012, published 2015)
Like-named read-outs stand apart in the source and are kept apart here. One block for each compound: values may come before it.

Legend:
RHE tissues [1] = details: cited from earlier work
[2] = Deliquescence relative humidity (DRH) of a saturated solution in a sealed vessel at 32° C.; assay type: physicochemical; details: saturated solution in water (1 mL), 24 hours
Description: This experiment was to measure the deliquescence relative humidity (DRH) caused by a saturated amino acid solution in a sealed vessel at 32° C.; the lower the DRH, the greater the water holding capacity of the solution measured. Deliquescence relative humidity is the relative humidity at which the compound deliquesces, i.e. the relative humidity in which the compound absorbs so much water that it dissolves within the absorbed water.
The apparatus is maintained at 32° C. The temperature of 32° C. was chosen for being the temperature of outer stratum corneum. As the amino acids are to eventually be delivered to the outer layer of the skin, then the water holding capacity of these compounds at 32° C. is important.
The saturated solution is prepared as above by adding the amino acid to water (1 mL, 32° C.), whilst swirling. The total amino acid is weighed before adding to the water and the remaining amino acid so that the mass of compound used can be determined. The saturated solution (1 mL, 32° C.) is then transferred into the vial, again because of partial molar volume causing a change in volume by the addition of the amino acid to the water.
The temperature and % RH (% Relative Humidity) shown on the thermo-hygrometer are recorded every 30 minutes until the % RH remains constant. The temperature confirms that the temperature experienced by the sample is 32° C.

RHE tissues [3] = assay: RHE irritation assessment Method 2: Mattek's MTT effective time (ET-50) assay; assay type: cell-based, human
Text: Method 1 was used to investigate the potential for alpha-hydroxylglycine (α-H-G) and L-homoserine (L-h-S) to cause skin irritation. The protocol is primarily designed and validated for single compounds rather than solutions. Therefore to provide further insight into the potential of N-hydroxyserine and N-hydroxylglycine to cause skin irritation a second protocol was investigated using Mattek's MTT effective time (ET-50) assay which is designed to test mixtures of compounds. In addition two commercially available amino acid related compound (L-serine and glycine) were selected and tested as comparators for N-hydroxyserine and N-hydroxylglycine. […] As a general guideline, the following groupings can be used in assigning expected in vivo irritancy responses based on the ET-50 results obtained: The irritation assessment of the solutions was performed using the protocol described below. Each of the test solutions; […] Damaged tissues were discarded. • (iii) The tissue were transferred into the assay medium and incubated at 37° C., 5% CO2 until the application of the test solutions; […] The working MTT solution was prepared using the following procedure: • (i) MTT concentrate was removed from the freezer and allowed to thaw. The concentrate was diluted with the MTT diluent solution (1 mL of concentrate to 4 mL of MTT diluent solution). • (ii) MTT solution from Step (i) was centrifuged at a g-force of 300 for 5 min to remove any particulates. • (iii) The supernatant of the MTT solution from Step (ii) was stored in the dark at 4° C. for a maximum period of 24 h and used as required. […] The plates were incubated for 3 h (+/−5 min) at 37° C., 5% CO2 and 95% humidified atmosphere. • (vi) The treated tissues were subsequently transferred into a new plate filled with 1 mL of extractant solution. • (vii) The plates were sealed using Parafilm® to stop evaporation and protected from light using foil before extract at 2-8° C. to minimise evaporation. • (viii) Following extraction the RHE tissue were removed from the wells and an additional 1 mL of extractant solution was added. Using a pipette the extraction solution was mixed and made visually homogenous. • (ix) The solution from Step (viii) was transferred in to n=3 wells (200 μL per well) using an automatic pipette of a 96 well plate and the optical density was measured at a wavelength of 570 nm.

[4] = cited from earlier work
[5] = In vitro permeation of metronidazole through epidermal membrane in Franz type diffusion cells after amino acid pre-treatment; assay type: in vitro ADME, Human; details: maximal enhancement of the drug's permeation by amino acid pre-treatment
Description: (§1) Acyclovir (ACV), metronidazole and diclofenac diethylamine (DDEA) were analysed using HPLC, using of a Waters Alliance Separations Module and Waters detector. The temperature of the column and samples were maintained at 45±2° C. and 5.0±2° C., respectively. A Kinetix™ C-18 (Phenomenex, USA) column (150 mm×4.6 mm 5 μm particle size) with a guard column (Phenomenex USA, C-18 4.0×3.0 mm) was employed as the stationary phase. The mobile phase was three part; mobile phase A, water; mobile phase B, methanol; and mobile phase C, 10 mM ammonium phosphate buffer pH 2.5. The mobile phase was run using a gradient flow (Table 2) with a flow rate of 0.8 mL/min. Samples were run for 12 minutes with an injection volume of 10 μL. Acyclovir, metronidazole and DDEA were processed at a wavelength of 276 nm, with approximate retention times of 4.7, 6.5, and 8.7 min, respectively. Calibration curves were constructed from a series of standards prepared by serial dilution in conjunction with separately prepared quality controls. […] Data were recorded and analysed using Empower Pro^3 Software. […]
(§2) Three experiments were performed, one for each API (Acyclovir, metronidazole and DDEA). […] The integrity of the epidermal membrane was assessed using electrical resistance to ensure the epidermal membrane was intact. […] Samples were analysed using HPLC and the level of each API that had permeated was quantified.

[6] = In vitro permeation of diclofenac diethylamine (DDEA) through epidermal membrane in Franz type diffusion cells after amino acid pre-treatment; assay type: in vitro ADME, Human; details: maximal enhancement of the drug's permeation by amino acid pre-treatment
Description: as §1, §2

[7] = Snake study: water uptake into snake skin after treatment with amino acid solution; parameters: species or system Elaphe guttata, the American corn snake; details: 24 h treatment with 1.33M amino acid solution, dried, then 40% RH
Description: • All experiments were performed in triplicate (i.e. three separate solutions, three pieces of skin, one per solution). […] Each piece was weighed and placed directly into one the of the amino acid solutions, one piece of snake skin per solution. • After 1 hour, the snake skin was removed from the solution and blotted dry on filter paper. The weight of the snake skin was recorded before the same snake skin was returned to the amino acid solution. • After an additional 23 hours (24 hours in total), the snake skin was again blotted dry on filter paper and weighed. • The snake skin, now having absorbed the test amino acid, was then placed in a vacuum desiccator over silica (0% RH) for 48 hours before being weighed.
• A 10% w/w concentration solution of each compound is made by stirring the compound (100 mg) in water (1 mL). Three separate solutions of each compound are made separately so that the experiment can be carried out in triplicate simultaneously. […] The weight of the snake skin is recorded before the same snake skin is returned to the same compound solution. • After an additional 23 hours (24 hours in total), the snake skin is again blotted dry on filter paper and weighed. • The snake skin is then placed in a vacuum desiccator over silica (0% relative humidity (RH)) for 48 hours before being weighed. […]

RHE tissues [8] = assay: RHE irritation assessment Method 1: SkinEthic Skin Irritation Test-42 bis assay (MTT), plus 24 h contact time; assay type: cell-based, human; details: 42 min and 24 h exposure, 5 and 1% w/v α-H-G, 10 and 1% w/v L-h-S in water
Text: The purpose of this experiment was to investigate the potential of alpha-hydroxyglycine (α-H-G) and L-homoserine (L-h-S) to cause skin irritation. The method was based on the validated SOP for the “The SkinEthic Skin Irritation Test-42 bis assay” in accordance to OECD guideline Test No. 439: In Vitro Skin Irritation. The protocol is provided in Section 1.2. Further details on the method can be found in the SkinEthic™ RHE SOP, Version 2.1 (July 2009), SkinEthic skin irritation test-42 bis test method for the prediction of acute skin irritation of chemicals: 42 minutes application+42 hours post-incubation. Available at: [http://ecvam.jrc.ec.europa.eu].
In addition, a further experiment was performed where the contact time of the test solution with the tissue was increased to 24 h. Following which point an MTT assay was used to determine the tissue viability and the test solutions potential to cause irritation.
The following steps were completed on receipt of the tissues: • (i) Wells of 6-well plates were filled with 1 mL growth culture medium. • (ii) Tissue were removed from their packaging, cleaned to remove the transport agarose and inspected for signs of damage; damaged tissues were discarded. • (iii) The tissue were transferred into the growth culture medium then incubated at 37° C., 5% CO2 until application of the test solution.
1.2.1.1.6 Applications of 5 and 1% w/v α-H-G and 10 and 1% w/v L-h-S and Controls • (i) 16 μL±0.5 μL of the test solutions (5% w/v α-hydroxyglycine (α-H-G) in water, 1% w/v α-hydroxyglycine (α-H-G) in water, 10% w/v L-homoserine (L-h-S) in water, 1% w/v L-homoserine (L-h-S) in water) and negative (PBS) and positive (5% SDS) controls were dispensed onto the top of the epidermal tissue, using positive displacement pipette. […]

[9] = mass used printed beside the name

DRH [2, 9]: 86.0%
Compound: C[C@@H](O)[C@H](N)C(=O)O [Threonine]

DRH [2, 9]: 83.1%
Compound: C[C@H](N)C(=O)O [Alanine]

DRH [2, 9]: 82.53%
Compound: N[C@@H](CO)C(=O)O [L-serine, reference compound]
expected in vivo irritancy from ET-50 (RHE tissues [3]): non-irritants
impact on the viability of the RHE tissues (RHE tissues [3]): no significant impact

DRH [2, 9]: 89.6%
Compound: N[C@@H](CS)C(=O)O [Cysteine]

DRH [2, 9]: 79.73%
DRH ([2]; mass used printed beside the name, listed as Hydroxyglycine): 79.7%
Compound: NC(O)C(=O)O (stereo not drawn) [α-hydroxyglycine, 2-Amino-2-hydroxyacetic acid]
average percentage weight increase after 24 h at 40% RH [7]: particularly advantageous properties
skin irritation potential (viability below 50% of negative control = irritant) (RHE tissues [8]; listed as alpha-hydroxyglycine): non-irritants
skin irritation potential (viability below 50% of negative control = irritant) (RHE tissues [8]; listed as α-H-G): non-irritating
ET-50 (exposure time to reduce viability to 50% of the control) (RHE tissues [3]; 10% w/v N-H-S, 1% w/v N-H-G in water, dosing periods 2, 6 and 24 h): < 24 h
expected in vivo irritancy from ET-50 (RHE tissues [3]; 10% w/v N-H-S, 1% w/v N-H-G, 10% w/v L-Serine, 10% w/v Glycine in water): non-irritant

The remaining lines, values behind:

Compound: Triton X-100 [1% Triton X-100]
ET-50 (hrs), general guideline examples (RHE tissues [1]): 4-12 moderate to mild hrs

Compound: NCC(=O)O [Glycine, reference compound]
DRH [2, 9]: 79.13%
expected in vivo irritancy from ET-50 (RHE tissues [3]): non-irritants
impact on the viability of the RHE tissues (RHE tissues [3]): no significant impact

Compound: N[C@H](CO)C(=O)O [D-serine]
DRH ([2]; D-serine 0.95 g): 85.40%
DRH ([2]; D-serine 1.2 g): 82.13%

Compound: NC(N)=O [Urea]
DRH [2, 9]: 75.03%

Compound: N[C@@H](CC(=O)O)C(=O)O [Aspartic acid]
DRH [2, 9]: 100.0%

Compound: O=[N+]([O-])[O-].O=[N+]([O-])[O-].[Zn+2] [Zinc Nitrate]
DRH [2, 9]: 45.8%

Compound: NC(=O)C[C@H](N)C(=O)O [Asparagine]
DRH [2, 9]: 91.2%

Compound: O=C(O)[C@@H]1CCCN1 [L-Proline]
DRH [2, 9]: 44.6%

Compound: Cc1ncc([N+](=O)[O-])n1CCO [Metronidazole]
Log P [4]: −0.02
ER (drug absorption enhancement factor) [5]: 15

Compound: O=C(O)Cc1ccccc1Nc1c(Cl)cccc1Cl [Diclofenac diethylamine]
Log P [4]: 0.85
ER (drug absorption enhancement factor) [6]: 19

Compound: O=[N+]([O-])O [conc. Nitric acid, Nitric acid]
ET-50 (hrs), general guideline examples (RHE tissues [1]; guideline groupings of the assay): <0.5 strong/severe, possible corrosive hrs
